Legend:
GP2D cells = assay: GP2D proliferation assay (120 h) (colorectal cancer, G12D); format: cell-based
Outline: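 500 cells/well in DMEM + GlutaMAX + 10% FCS, exposed to a logarithmic compound dose series (DMSO-normalized) for 120 h. Viability read by CellTiter-Glo luminescence as percent of DMSO control, with an untreated T0 read at dosing; IC50 from four-parameter non-linear regression.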

NCI-H2122 cells = assay: NCI-H2122 CTG proliferation assay (120 h) (NSCLC, G12C); format: cell-based; details: Homo sapiens
Outline: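 NCI-H2122 cells (KRAS G12C NSCLC), 200 per well in RPMI with 10% FCS, were dosed with compound on day 1 and incubated 120 h at 37 °C. Viability was read by CellTiter-Glo luminescence as percent of DMSO control, and IC50 was fitted with a four-parameter model.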

KRAS (G12V)::SOS1 = KRAS (G12V)::SOS1 (Homo sapiens (Human), UniProt P01116, C118S/G12V); assay: KRAS::SOS1 AlphaScreen binding assay, KRAS G12V
Source text: (§1) This assay can be used to examine the potency with which compounds according to the invention binding to (mutated) KRAS inhibit the protein-protein interaction between SOS1 and (mutated) KRAS e.g., KRAS WT, KRAS G12C, KRAS G12D, KRAS G12V, KRAS G13D. […] Low IC50 values in this assay setting are indicative of strong inhibition of protein-protein interaction between SOS1 and KRAS:
(§2) These assays measure the inhibitory effect of compounds on KRAS mutant protein-protein interactions using the Alpha Screen technology by Perkin Elmer.
(§3) The following (mutant) enzyme forms of KRAS and interacting proteins are used in these assays at the given concentrations: • KRAS (G12D) 1-169, N-terminal 6His-tag, C-terminal avi-tag (Xtal BioStructures, Inc.); final assay concentration 10 nM and SOS1 564-1049, N-terminal 229 GST-tag, TEV cleavage site (Viva Biotech Ltd); final assay concentration 5 nM; • KRAS (G12C) 1-169, N-terminal 6His-tag for purification, cleaved off, C-terminal avi-tag, biotinylated, mutations: C51S, C80L, C118S (in house); final assay concentration 7.5 nM and SOS1 564-1049, N-terminal 229 GST-tag, TEV cleavage site (Viva Biotech Ltd); final assay concentration 5 nM; • KRAS (G12V) 1-169, N-terminal 6His-tag for purification, cleaved off, C-terminal avi-tag, biotinylated, TEV cleavage site, mutation: C118S, GDP loaded (in house); final assay concentration 10 nM and SOS1 564-1049, N-terminal 229 GST-tag, TEV cleavage site (Viva Biotech Ltd); final assay concentration 10 nM; • KRAS (G13D) 1-169, N-terminal 6His-tag for purification, cleaved off, C-terminal avi-tag, biotinylated, TEV cleavage site, mutation: C118S, GDP loaded (in house); final assay concentration 10 nM and SOS1 564-1049, N-terminal 229 GST-tag, TEV cleavage site (Viva Biotech Ltd); final assay concentration 10 nM; • KRAS (WT) 1-169, N-terminal 6His-tag for purification, cleaved off, C-terminal avi-tag, biotinylated, TEV cleavage site, mutation: C118S, GDP loaded (in house); final assay concentration 10 nM and SOS1 564-1049, N-terminal 229 GST-tag, TEV cleavage site (Viva Biotech Ltd); final assay concentration 10 nM.
(§4) Test compounds dissolved in DMSO are dispensed onto assay plates (Proxiplate 384 PLUS, white, PerkinElmer; 6008289) using an Access Labcyte Workstation with the Labcyte Echo 55×. For the chosen highest assay concentration of 100 μM, 150 nL of compound solution are transferred from a 10 mM DMSO compound stock solution. A series of eleven fivefold dilutions per compound are transferred to the assay plate, compound dilutions are tested in duplicates. DMSO are added as backfill to a total volume of 150 nL.
(§5) The assays run on a fully automated robotic system in a darkened room below 100 Lux. To 150 nl of compound dilution 10 μl of a mix including KRAS mutant protein, SOS1 (final assay concentrations see above) and GDP nucleotide (Sigma G7127; final assay concentration 10 μM) in assay buffer (1×PBS, 0.1% BSA, 0.05% Tween 20) are added into columns 1-24.
(§6) After 30 minutes incubation time 5 μl of Alpha Screen bead mix in assay buffer are added into columns 1-23. Bead mix consists of AlphaLISA Glutathione Acceptor Beads (PerkinElmer, Cat No AL109) and AlphaScreen Streptavidin Donor Beads (PerkinElmer Cat No 6760002) in assay buffer at a final assay concentration of 10 μg/ml each.
(§7) Plates are kept at room temperature in a darkened incubator. After an additional 60 minutes incubation time the signal is measured in a PerkinElmer Envision HTS Multilabel Reader using the AlphaScreen specs from PerkinElmer.
(§8) Each plate contains up to 16 wells of a negative control depending on the dilution procedure (platewise or serial) (DMSO instead of test compound; with KRAS mutant::SOS1 GDP mix and bead mix; column 23) and 16 wells of a positive control (DMSO instead of test compound; with KRAS mutant::SOS1 GDP mix w/o bead mix; column 24).
(§9) As internal control known inhibitors of KRAS mutant::SOS1 interaction can be measured on each compound plate. […]

KRAS (G13D)::SOS1 = KRAS (G13D)::SOS1 (Homo sapiens (Human), UniProt P01116, C118S/G13D); assay: KRAS::SOS1 AlphaScreen binding assay, KRAS G13D
Source text: as §1, §2, §3, §4, §5, §6, §7, §8, §9

KRAS (G13D)::SOS1, sequence (P01116 other isoform, or with tags, fused parts or gaps G13D/C118S): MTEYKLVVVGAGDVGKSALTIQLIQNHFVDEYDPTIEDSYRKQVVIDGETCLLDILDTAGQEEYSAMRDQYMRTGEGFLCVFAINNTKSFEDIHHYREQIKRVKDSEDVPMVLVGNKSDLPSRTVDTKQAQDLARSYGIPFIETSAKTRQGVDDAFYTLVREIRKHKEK
KRAS (G12V)::SOS1, sequence (P01116 other isoform, or with tags, fused parts or gaps G12V/C118S): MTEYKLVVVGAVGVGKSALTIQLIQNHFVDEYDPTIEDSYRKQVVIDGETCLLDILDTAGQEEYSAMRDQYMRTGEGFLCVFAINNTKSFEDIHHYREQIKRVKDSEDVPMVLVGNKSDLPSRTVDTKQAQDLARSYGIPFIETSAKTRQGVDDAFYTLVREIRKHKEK

Row | IC50 (GP2D cells) | IC50 (NCI-H2122 cells) | IC50 (KRAS (G12V)::SOS1) | IC50 (KRAS (G13D)::SOS1) | Structure (SMILES)
1 | 5 nM | 3060 nM | 50 nM | 64 nM | C[C@H](Oc1cc(N2CCN(C)C3(CC3)C2)nc(-c2noc3c2CCC[C@@]32CCCc3sc(N)c(C#N)c32)n1)[C@@H]1CCCN1C [II-171]
2 | 233 nM | 221 nM | 2 nM |  | C[C@H](Oc1cc(-n2ccc(-c3cnccn3)n2)nc(-c2noc3c2CCC[C@@]32CCCc3sc(N)c(C#N)c32)n1)[C@@H]1CCCN1C [II-130]
3 |  |  |  | 27 nM | CO[C@H]1CCN(C)[C@@H]1[C@H](C)Oc1cc(-n2ccc(C(N)=O)n2)nc(-c2noc3c2CCC[C@@]32CCCc3sc(N)c(C#N)c32)n1 [II-201]
4 | 31 nM |  | 1 nM | 7 nM | C[C@H](Oc1cc(-n2ccc(C(=O)N[C@@H]3CCOC3)n2)nc(-c2noc3c2CCC[C@@]32CCCc3sc(N)c(C#N)c32)n1)[C@@H]1CCCN1C [II-192]
5 |  |  | 2 nM |  | CO[C@H]1CCN(C)[C@@H]1[C@H](C)Oc1cc(N2CCNC3(CC3)C2)nc(-c2noc3c2CCC[C@@]32CCCc3sc(N)c(C#N)c32)n1 [II-184]
6 |  |  | 2 nM |  | CO[C@H]1CCN(C)[C@@H]1[C@H](C)Oc1cc(-n2ccc(C(=O)N[C@@H](C)c3ccccn3)n2)nc(-c2noc3c2CCC[C@@]32CCCc3sc(N)c(C#N)c32)n1 [II-196]
7 |  |  |  | 8 nM | CC(C)NC(=O)Cc1ccn(-c2cc(O[C@@H](C)[C@@H]3CCCN3C)nc(-c3noc4c3CCC[C@@]43CCCc4sc(N)c(C#N)c43)n2)n1 [II-182]
8 |  |  | 2 nM |  | C[C@H](Oc1cc(-n2ccc(-c3cn(C4CCOCC4)nn3)n2)nc(-c2noc3c2CCC[C@@]32CCCc3sc(N)c(C#N)c32)n1)[C@@H]1CCCN1C [II-210]
9 | 1 nM | 1790 nM | 15 nM | 48 nM | C[C@H](Oc1cc(N2CCNC3(CC3)C2)nc(-c2noc3c2CCC[C@@]32CCCc3sc(N)c(C#N)c32)n1)[C@@H]1C[C@@H](F)CN1C [II-165]
10 |  |  | 1 nM | 7 nM | COCCNC(=O)c1ccn(-c2cc(O[C@@H](C)[C@@H]3CCCN3C)nc(-c3noc4c3CCC[C@@]43CCCc4sc(N)c(C#N)c43)n2)n1 [II-195]
11 |  |  | 3 nM |  | C[C@H](Oc1cc(-n2ccc(C3(O)COC3)n2)nc(-c2noc3c2CCC[C@@]32CCCc3sc(N)c(C#N)c32)n1)[C@@H]1CCCN1C [II-189]
12 | 301 nM | 180 nM | 2 nM |  | C[C@H](Oc1cc(-c2cccc(C(N)=O)c2)nc(-c2noc3c2CCC[C@@]32CCCc3sc(N)c(C#N)c32)n1)[C@@H]1CCCN1C [II-133]
13 | 11 nM | 2220 nM | 3 nM |  | C[C@H](Oc1cc(N2CCN(C)C3(COC3)C2)nc(-c2noc3c2CCC[C@@]32CCCc3sc(N)c(C#N)c32)n1)[C@@H]1C[C@@H](F)CN1C [II-148]

Row | Structure (SMILES) | IC50 (GP2D cells) | IC50 (NCI-H2122 cells) | IC50 (KRAS (G12V)::SOS1) | IC50 (KRAS (G13D)::SOS1)
14 | C[C@H](Oc1cc(-n2ccc(C(=O)N[C@H]3CCOC3)n2)nc(-c2noc3c2CCC[C@@]32CCCc3sc(N)c(C#N)c32)n1)[C@@H]1CCCN1C [II-193] |  |  | 2 nM | 9 nM
